Reference: ChEMBL document CHEMBL1123421, “Interaction of monoamine oxidase B with analogues of 1-methyl-4-phenyl-1,2,3,6-tetrahydropyridine derived from prodine-type analgesics” (J Med Chem, 1986)

How the values were obtained:
Homo sapiens [1] = organism: Homo sapiens; assay: Compound was tested for inhibition of monoclonal antibody complex (MAO B - MAO B 1C2) from human autopsy liver expressed as specific activity
Homo sapiens [2] = organism: Homo sapiens; assay: Compound was tested for inactivation of monoclonal antibody complex (MAO B - MAO B 1C2) from human autopsy liver
Homo sapiens [3] = organism: Homo sapiens; assay: Compound was tested for inactivation of monoclonal antibody complex Monoamine oxidase B from human autopsy liver

| SMILES | Specific activity (nM min-1 mg-1) (Homo sapiens [1]) | k' (Homo sapiens [2]) | k' (Homo sapiens [3]) |
| --- | --- | --- | --- |
| CC1CN(C)CC=C1c1ccccc1 (stereo not drawn) | 11.4 | 0 min⁻¹ | – |
| CN1CC=C(c2ccccc2)CC1 | 85.2 | 0.0264 min⁻¹ | – |
| C1=C(c2ccccc2)CCN(CCc2ccccc2)C1 | 0 | – | 0 min⁻¹ |
| CC1=C(c2ccccc2)CCN(C)C1 | 5.3 | 0 min⁻¹ | – |
